Here are results for eight compounds from the NIST ThermoML archive (doi:10.1021/je0602723).

The nature of this data set: activity coefficient (dimensionless); of the first substance listed, at infinite dilution; xn = mol fraction of the nth substance listed. Particulars: Liquid, Chromatography, x1 = 0.

Numbers after ± are expanded uncertainties.

With `CCCCCO` [pentan-1-ol] + CCOS(=O)(=O)[O-].CCn1cc[n+](C)c1, the activity coefficient by setting is: (333.4 K) 2.58 ± 0.18; (343.9 K) 2.36 ± 0.16; (354.4 K) 2.22 ± 0.15; (364.7 K) 2.12 ± 0.14.
Consider `CCCCC=O` [pentanal] + CCOS(=O)(=O)[O-].CCn1cc[n+](C)c1, for which the activity coefficient is 5.19 ± 0.35 (333.5 K); 5.1 ± 0.35 (343.9 K); 4.96 ± 0.34 (354.4 K); 4.82 ± 0.33 (364.8 K); 4.69 ± 0.32 (375.2 K).
Regarding `CCCCCc1ccccc1` [pentylbenzene] + CCOS(=O)(=O)[O-].CCn1cc[n+](C)c1, the activity coefficient is 43.5 ± 3 (354.3 K); 40.3 ± 2.8 (364.8 K); 38 ± 2.6 (375.1 K); 35 ± 2.4 (385.7 K); 32.4 ± 2.2 (396.1 K).
For the compound `CCCO` [propan-1-ol] + CCOS(=O)(=O)[O-].CCn1cc[n+](C)c1, the activity coefficient stood at 1.23 ± 0.08 (322.8 K); 1.12 ± 0.07 (333.5 K); 1.05 ± 0.07 (343.9 K); 0.91 ± 0.06 (364.9 K); 0.87 ± 0.06 (375.4 K).
On to `CC(C)O` [propan-2-ol] + CCOS(=O)(=O)[O-].CCn1cc[n+](C)c1, for which the activity coefficient runs as follows: (302.5 K) 1.49 ± 0.1; (312.2 K) 1.41 ± 0.09; (322.8 K) 1.29 ± 0.08; (333.4 K) 1.22 ± 0.08; (343.9 K) 1.15 ± 0.07.
For `CCC=O` [propanal] + CCOS(=O)(=O)[O-].CCn1cc[n+](C)c1, the activity coefficient runs as follows: (333.5 K) 1.94 ± 0.13; (343.9 K) 1.9 ± 0.13; (354.4 K) 1.84 ± 0.12; (364.8 K) 1.8 ± 0.12; (375.2 K) 1.74 ± 0.12.
Turning to `CCCc1ccccc1` [propylbenzene] + CCOS(=O)(=O)[O-].CCn1cc[n+](C)c1, the activity coefficient by setting is: (343.8 K) 16.8 ± 1.1; (354.3 K) 15.7 ± 1.1; (364.7 K) 14.9 ± 1; (375.1 K) 14 ± 0.95; (385.7 K) 13.2 ± 0.9.
As to `Cc1ccccc1` [toluene] + CCOS(=O)(=O)[O-].CCn1cc[n+](C)c1, the activity coefficient (312.3 K) amounted to 5.77 ± 0.39; the activity coefficient (323 K) came to 5.62 ± 0.38; the activity coefficient (333.5 K) came out at 5.45 ± 0.37; the activity coefficient (343.9 K) was 5.29 ± 0.36; the activity coefficient (354.4 K) was 5.08 ± 0.35; the activity coefficient (364.7 K) was 4.88 ± 0.33.
